Consider 1 substance from patent US20100278934A1, “METHODS AND COMPOSITIONS FOR CONSERVING AND/OR PREPARING AN ORGAN OR TISSUE FOR TRANSPLANT” (Regenerx Biopharmaceuticals Inc., priority 2006, published 2010).

Data set [1] concerns Co-cultures of rat HSC and Human hepatocytes. As to the kind of experiment: Co-cultures of rat HSC and human hepatocytes with Tβ4, hepatocyte count after one week. In kind it is cell-based. To be noted: greater than 100 ng/ml of Tβ4; one week in culture. Here is the method:
Hepatocyte Growth Factor (HGF) is a trophic factor for hepatocytes. […] Co-cultures of rat HSC and Human hepatocytes are prepared. Controls are incubated with the regular hormonally-defined medium used for hepatocytes. Experimental cultures receive greater than 100 ng/ml of Tβ4 in the same culture medium. Cells are harvested after one week using collagenase and trypsin. The hepatocytes are separated from the HSC by low speed centrifugation and the cells counted and used for total RNA extraction. […] The purity of the cell fractions are determined after staining with anti-human albumin antibodies (rat HSC are negative). RNA is used for RT-PCR and the expression of liver specific genes analyzed using human primers. Rat primers are used to determine the degree of contamination of rat HSC.

Data set [2] has as its system Human hepatic stellate cells HSC. As to the kind of experiment: RT-PCR analysis of mRNA expression in human hepatic stellate cells cultured with Tβ4. In kind it is cell-based. Here is the method:
Human hepatic stellate cells HSC were obtained from a liver cell mixture purchased from ADMET technologies after separation on an OptiPrep® Density Gradient Medium (Sigma). They were cultured until confluent and then plated at a density of 250,000 cells/60-mm dish and cultured in MEM supplemented with 10% bovine fetal serum, 1% non-essential amino acids and antibiotics. The cells were maintained in culture for approximately 48 hours and when semi-confluent they were serum-starved overnight using MEM supplemented with 1% albumin, antibiotics and 1% non-essential amino acids. RNA was extracted with Trizol (Invitrogen) and RT-PCR performed using primers. The expression of GAPDH was used as a control. All the experiments were performed in duplicate.
In many instances, the increase was dose dependent. […] The expression of another marker of HSC differentiation, namely PDGF-β receptor, was inhibited in a dose-dependent manner (75% with 1 μg/ml of Tβ4).

Where [3] appears, read: HSC cultured for 24 hours with different concentrations of Tβ4, RT-PCR, GAPDH control.
The mark [4] stands for this setting: HSC cultured for 24 hours, RT-PCR.

thymosin beta 4 [Tβ4]: the “hepatocyte proliferation / number” value in data set [1] was “proliferate and increase in number”. Moreover, the “inhibition of expression of PDGF-β receptor” value in data set [2] (1 μg/ml of Tβ4, HSC cultured for 24 hours, dose-dependent) is listed as 75%. Moreover, the “increase in expression of HGF mRNA” value in data set [2] (1 mg/ml of Tβ4, HSC cultured for 24 hours) is listed as 4 fold. In data set [2] (setting [3]), the “increase in expression of GSK 3β mRNA” value turned out to be 2.5 fold, the “increase in expression of α-SMA mRNA” value is 4 fold and the “increase in expression of β-catenin mRNA” value came out at 3 fold. For the same substance, in data set [2] (setting [4]), the “Tβ4 concentration giving maximal expression of α-SMA” value was 1 µg/mL and the “Tβ4 concentration giving maximal increase in β-catenin mRNA” value worked out at 1 ng/mL.
